The values that follow come from ChEMBL document CHEMBL5042544, “Discovery of a Potent and Selective ATAD2 Bromodomain Inhibitor with Antiproliferative Activity in Breast Cancer Models” (J Med Chem, 2022).

Activity calls are given as the source filed them. No cut-off for these calls is given here.

In assay [1] the target is Bromodomain adjacent to zinc finger domain protein 2A (Homo sapiens) (UniProt Q9UIF9). In words: Binding affinity to human BAZ2A bromodomain assessed as residual activity at 300 nM by BROMOscan method relative to control.
In assay [2] the test system is SK-BR-3. In words: Antiproliferative activity against human SK-BR-3 cells expressing BRD1 assessed as inhibition of colony formation at 0.01 to 10 uM measured after 14 to 21 days by alamarBlue based colony formation assay. It is filed as functional, cell-based. Particulars: dose 0.01-10 µM, time 14-21 day. (In general: The colour change of resazurin is a common sign of viable cells or microbes.)

Assay [3] deals with Transcription intermediary factor 1-alpha (Homo sapiens) (UniProt O15164). Briefly: Binding affinity to human TRIM24 bromodomain assessed as residual activity at 300 nM by BROMOscan method relative to control.
In assay [4] the target is T1, Bromodomain and WD repeat-containing protein 1 (Homo sapiens, UniProt Q9NSI6). Briefly: Binding affinity to human WDR9 bromodomain 2 assessed as residual activity at 300 nM by BROMOscan method relative to control.
Assay [5] concerns the target Bromodomain testis-specific protein (Homo sapiens, UniProt Q58F21). Briefly: Binding affinity to human BRDT bromodomain 1 assessed as dissociation constant by BROMOscan method.
For assay [6], the system named is SK-BR-3. In words: Antiproliferative activity against human SK-BR-3 cells expressing ATAD2 assessed as inhibition of colony formation at 0.01 to 10 uM measured after 14 to 21 days by AlamarBlue staining based colony formation assay. The class given is functional, cell-based. Particulars: dose 0.01-10 µM, time 14-21 day.
Assay [7] concerns the target T1, Bromodomain and WD repeat-containing protein 1. In words: Binding affinity to human WDR9 bromodomain 2 assessed as dissociation constant by BROMOscan method.
Assay [8] deals with Chromatin remodeling regulator CECR2 (Homo sapiens, UniProt Q9BXF3). Briefly: Binding affinity to human CECR2 bromodomain assessed as residual activity at 300 nM by BROMOscan method relative to control.
The target of assay [9] is CREB-binding protein (Homo sapiens) (UniProt Q92793). In words: Binding affinity to human CREBBP bromodomain assessed as residual activity at 300 nM by BROMOscan method relative to control.
Assay [10] has as its target Peregrin (Homo sapiens) (UniProt P55201). In words: Binding affinity to human […] bromodomain assessed as residual activity at 300 nM by BROMOscan method relative to control.
A short description of assay [11]: Binding affinity to human ATAD2A assessed as dissociation constant by BROMOscan method.
The target in assay [12] is Bromodomain adjacent to zinc finger domain protein 2B (Homo sapiens) (UniProt Q9UIF8). Briefly: Binding affinity to human BAZ2B bromodomain assessed as residual activity at 300 nM by BROMOscan method relative to control.
Assay [13] deals with T2, Bromodomain-containing protein 4 (Homo sapiens, UniProt O60885). Briefly: Binding affinity to human BRD4 bromodomain 1 assessed as residual activity at 300 nM by BROMOscan method relative to control.
The target in assay [14] is T3, ATPase family AAA domain-containing protein 2 (Homo sapiens, UniProt Q6PL18).
T3 sequence (Q6PL18 whole entry): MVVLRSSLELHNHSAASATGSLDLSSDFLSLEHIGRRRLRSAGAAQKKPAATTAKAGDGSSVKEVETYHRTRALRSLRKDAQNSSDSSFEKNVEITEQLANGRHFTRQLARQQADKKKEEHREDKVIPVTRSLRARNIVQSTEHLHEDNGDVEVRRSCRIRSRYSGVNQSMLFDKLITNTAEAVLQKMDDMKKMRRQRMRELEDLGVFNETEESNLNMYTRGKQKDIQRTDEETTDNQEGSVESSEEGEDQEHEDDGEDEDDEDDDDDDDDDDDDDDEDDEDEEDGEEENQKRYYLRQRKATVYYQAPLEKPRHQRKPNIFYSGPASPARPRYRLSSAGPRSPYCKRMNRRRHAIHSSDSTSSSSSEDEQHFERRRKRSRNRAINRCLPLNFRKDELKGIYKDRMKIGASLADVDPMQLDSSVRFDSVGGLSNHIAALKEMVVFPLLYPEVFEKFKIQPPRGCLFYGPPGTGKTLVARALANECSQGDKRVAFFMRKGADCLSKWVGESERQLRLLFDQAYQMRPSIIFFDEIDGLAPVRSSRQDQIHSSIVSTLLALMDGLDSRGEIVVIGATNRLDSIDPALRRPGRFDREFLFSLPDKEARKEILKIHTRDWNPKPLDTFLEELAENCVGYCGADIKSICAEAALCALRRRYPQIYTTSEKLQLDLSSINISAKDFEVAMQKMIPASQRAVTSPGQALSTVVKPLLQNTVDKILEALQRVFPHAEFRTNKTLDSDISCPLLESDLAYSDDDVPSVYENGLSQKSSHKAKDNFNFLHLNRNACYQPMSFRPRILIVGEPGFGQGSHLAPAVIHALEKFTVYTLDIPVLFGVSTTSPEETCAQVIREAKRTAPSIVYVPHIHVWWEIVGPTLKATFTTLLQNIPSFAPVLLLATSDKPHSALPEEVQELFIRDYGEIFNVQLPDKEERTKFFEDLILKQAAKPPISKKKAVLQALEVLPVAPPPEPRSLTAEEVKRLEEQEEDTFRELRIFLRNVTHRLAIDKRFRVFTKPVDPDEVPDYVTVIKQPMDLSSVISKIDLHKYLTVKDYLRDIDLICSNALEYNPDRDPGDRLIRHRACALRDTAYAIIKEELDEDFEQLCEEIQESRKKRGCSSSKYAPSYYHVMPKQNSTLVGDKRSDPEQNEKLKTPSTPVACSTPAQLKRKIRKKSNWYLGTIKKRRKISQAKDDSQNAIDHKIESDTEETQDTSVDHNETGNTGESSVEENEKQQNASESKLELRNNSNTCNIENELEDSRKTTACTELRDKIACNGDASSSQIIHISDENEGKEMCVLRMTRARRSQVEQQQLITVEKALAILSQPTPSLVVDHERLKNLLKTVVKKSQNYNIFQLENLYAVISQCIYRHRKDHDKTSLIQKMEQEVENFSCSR
In words: Displacement of Halo-tagged Histone H3.3 from Nanoluc-ATAD2 BD (962 to 1119 residues) (unknown origin) transfected in human HCT116 cells incubated for 18 hrs in presence of efflux inhibitor elacridar by NanoBRET assay. The class given is cell-based, HCT-116. For orientation: BRET reads energy transfer from a luciferase to a nearby fluorophore.

For assay [15], the species on record is Homo sapiens. In words: Selectivity ratio of IC50 for Inhibition of […] GST-ATAD2 BD (981 to 1108 residues) (unknown origin) expressed in Escherichia coli BL21 (DE3) to IC50 for Halo-tagged Histone H3.3 from Nanoluc-ATAD2 BD ([…] residues) (unknown origin) transfected in human HCT116 cells.
The target in assay [16] is Bromodomain-containing protein 3 (Homo sapiens, UniProt Q15059). In words: Binding affinity to human BRD3 bromodomain 1 assessed as residual activity at 300 nM by BROMOscan method relative to control.
Assay [17] deals with EVSA-T. In words: Antiproliferative activity against human EVSA-T cells expressing ATAD2 assessed as inhibition of colony formation at 0.01 to 10 uM measured after 14 to 21 days by AlamarBlue staining based colony formation assay. It is filed as functional, cell-based. Particulars: dose 0.01-10 µM, time 14-21 day.
Assay [18] concerns the target T2, Bromodomain-containing protein 4. Briefly: Displacement of Halo-tagged Histone H3.3 from Nanoluc-BRD4 BD1/BD2 (44 to 460 residues) (unknown origin) transfected in human HCT116 cells incubated for 18 hrs by NanoBRET assay. It is filed as cell-based, HCT-116.

T1 sequence (Q9NSI6 whole entry): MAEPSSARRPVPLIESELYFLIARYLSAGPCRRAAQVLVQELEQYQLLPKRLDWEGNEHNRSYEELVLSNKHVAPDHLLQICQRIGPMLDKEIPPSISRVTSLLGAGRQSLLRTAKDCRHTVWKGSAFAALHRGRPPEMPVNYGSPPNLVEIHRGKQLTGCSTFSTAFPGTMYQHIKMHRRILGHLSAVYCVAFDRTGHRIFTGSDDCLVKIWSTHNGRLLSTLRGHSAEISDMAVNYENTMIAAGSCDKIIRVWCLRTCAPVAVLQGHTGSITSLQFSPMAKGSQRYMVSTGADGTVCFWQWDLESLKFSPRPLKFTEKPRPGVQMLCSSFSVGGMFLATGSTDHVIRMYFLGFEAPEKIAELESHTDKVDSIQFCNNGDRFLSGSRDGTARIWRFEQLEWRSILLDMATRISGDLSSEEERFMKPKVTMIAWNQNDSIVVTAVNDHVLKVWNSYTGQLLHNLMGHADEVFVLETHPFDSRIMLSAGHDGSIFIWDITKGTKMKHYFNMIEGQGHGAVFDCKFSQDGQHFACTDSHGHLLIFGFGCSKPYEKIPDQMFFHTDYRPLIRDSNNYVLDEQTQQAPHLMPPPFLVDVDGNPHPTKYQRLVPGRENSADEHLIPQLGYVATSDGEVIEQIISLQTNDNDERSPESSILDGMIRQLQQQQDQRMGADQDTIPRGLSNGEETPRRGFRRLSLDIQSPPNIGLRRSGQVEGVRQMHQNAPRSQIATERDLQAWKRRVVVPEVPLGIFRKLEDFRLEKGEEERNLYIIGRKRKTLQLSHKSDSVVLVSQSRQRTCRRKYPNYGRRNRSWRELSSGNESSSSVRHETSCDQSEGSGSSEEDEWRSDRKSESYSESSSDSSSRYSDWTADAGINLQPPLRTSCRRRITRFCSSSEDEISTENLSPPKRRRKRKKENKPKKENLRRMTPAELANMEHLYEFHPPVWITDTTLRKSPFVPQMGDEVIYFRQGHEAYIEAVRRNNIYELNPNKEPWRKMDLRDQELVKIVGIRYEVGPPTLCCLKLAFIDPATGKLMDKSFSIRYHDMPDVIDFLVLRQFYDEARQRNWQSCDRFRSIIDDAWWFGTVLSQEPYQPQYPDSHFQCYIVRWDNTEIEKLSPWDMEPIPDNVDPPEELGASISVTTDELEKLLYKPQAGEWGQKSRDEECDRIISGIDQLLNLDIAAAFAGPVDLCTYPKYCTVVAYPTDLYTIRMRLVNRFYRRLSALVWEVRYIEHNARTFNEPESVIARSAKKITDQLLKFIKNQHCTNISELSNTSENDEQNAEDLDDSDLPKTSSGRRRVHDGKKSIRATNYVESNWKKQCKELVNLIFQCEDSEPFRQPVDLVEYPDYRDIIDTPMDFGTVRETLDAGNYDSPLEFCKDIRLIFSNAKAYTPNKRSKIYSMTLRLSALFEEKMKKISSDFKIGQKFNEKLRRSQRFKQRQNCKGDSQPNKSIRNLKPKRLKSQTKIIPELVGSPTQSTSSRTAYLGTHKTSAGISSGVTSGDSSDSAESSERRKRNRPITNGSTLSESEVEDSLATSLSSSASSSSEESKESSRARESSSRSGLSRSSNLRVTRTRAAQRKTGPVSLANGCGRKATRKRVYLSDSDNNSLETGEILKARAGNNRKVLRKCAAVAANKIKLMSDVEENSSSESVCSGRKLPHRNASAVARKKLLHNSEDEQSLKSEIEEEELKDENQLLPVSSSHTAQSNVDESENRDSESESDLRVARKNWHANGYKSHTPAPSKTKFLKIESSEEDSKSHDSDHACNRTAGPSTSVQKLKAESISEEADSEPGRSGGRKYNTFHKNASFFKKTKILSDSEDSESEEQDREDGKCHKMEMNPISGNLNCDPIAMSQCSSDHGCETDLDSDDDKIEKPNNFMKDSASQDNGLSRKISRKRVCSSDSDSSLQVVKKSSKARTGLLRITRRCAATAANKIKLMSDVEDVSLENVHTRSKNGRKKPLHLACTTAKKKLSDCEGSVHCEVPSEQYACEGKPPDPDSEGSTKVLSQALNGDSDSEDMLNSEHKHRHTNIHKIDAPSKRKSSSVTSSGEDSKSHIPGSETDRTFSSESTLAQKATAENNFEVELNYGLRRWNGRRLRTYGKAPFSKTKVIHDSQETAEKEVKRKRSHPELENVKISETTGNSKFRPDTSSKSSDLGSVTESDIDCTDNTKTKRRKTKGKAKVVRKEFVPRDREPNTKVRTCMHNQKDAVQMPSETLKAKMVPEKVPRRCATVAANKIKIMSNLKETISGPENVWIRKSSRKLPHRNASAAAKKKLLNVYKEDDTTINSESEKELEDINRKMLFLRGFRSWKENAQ
Bromodomain adjacent to zinc finger domain protein 2B (Homo sapiens), sequence (Q9UIF8 whole entry, the tested form may be a part): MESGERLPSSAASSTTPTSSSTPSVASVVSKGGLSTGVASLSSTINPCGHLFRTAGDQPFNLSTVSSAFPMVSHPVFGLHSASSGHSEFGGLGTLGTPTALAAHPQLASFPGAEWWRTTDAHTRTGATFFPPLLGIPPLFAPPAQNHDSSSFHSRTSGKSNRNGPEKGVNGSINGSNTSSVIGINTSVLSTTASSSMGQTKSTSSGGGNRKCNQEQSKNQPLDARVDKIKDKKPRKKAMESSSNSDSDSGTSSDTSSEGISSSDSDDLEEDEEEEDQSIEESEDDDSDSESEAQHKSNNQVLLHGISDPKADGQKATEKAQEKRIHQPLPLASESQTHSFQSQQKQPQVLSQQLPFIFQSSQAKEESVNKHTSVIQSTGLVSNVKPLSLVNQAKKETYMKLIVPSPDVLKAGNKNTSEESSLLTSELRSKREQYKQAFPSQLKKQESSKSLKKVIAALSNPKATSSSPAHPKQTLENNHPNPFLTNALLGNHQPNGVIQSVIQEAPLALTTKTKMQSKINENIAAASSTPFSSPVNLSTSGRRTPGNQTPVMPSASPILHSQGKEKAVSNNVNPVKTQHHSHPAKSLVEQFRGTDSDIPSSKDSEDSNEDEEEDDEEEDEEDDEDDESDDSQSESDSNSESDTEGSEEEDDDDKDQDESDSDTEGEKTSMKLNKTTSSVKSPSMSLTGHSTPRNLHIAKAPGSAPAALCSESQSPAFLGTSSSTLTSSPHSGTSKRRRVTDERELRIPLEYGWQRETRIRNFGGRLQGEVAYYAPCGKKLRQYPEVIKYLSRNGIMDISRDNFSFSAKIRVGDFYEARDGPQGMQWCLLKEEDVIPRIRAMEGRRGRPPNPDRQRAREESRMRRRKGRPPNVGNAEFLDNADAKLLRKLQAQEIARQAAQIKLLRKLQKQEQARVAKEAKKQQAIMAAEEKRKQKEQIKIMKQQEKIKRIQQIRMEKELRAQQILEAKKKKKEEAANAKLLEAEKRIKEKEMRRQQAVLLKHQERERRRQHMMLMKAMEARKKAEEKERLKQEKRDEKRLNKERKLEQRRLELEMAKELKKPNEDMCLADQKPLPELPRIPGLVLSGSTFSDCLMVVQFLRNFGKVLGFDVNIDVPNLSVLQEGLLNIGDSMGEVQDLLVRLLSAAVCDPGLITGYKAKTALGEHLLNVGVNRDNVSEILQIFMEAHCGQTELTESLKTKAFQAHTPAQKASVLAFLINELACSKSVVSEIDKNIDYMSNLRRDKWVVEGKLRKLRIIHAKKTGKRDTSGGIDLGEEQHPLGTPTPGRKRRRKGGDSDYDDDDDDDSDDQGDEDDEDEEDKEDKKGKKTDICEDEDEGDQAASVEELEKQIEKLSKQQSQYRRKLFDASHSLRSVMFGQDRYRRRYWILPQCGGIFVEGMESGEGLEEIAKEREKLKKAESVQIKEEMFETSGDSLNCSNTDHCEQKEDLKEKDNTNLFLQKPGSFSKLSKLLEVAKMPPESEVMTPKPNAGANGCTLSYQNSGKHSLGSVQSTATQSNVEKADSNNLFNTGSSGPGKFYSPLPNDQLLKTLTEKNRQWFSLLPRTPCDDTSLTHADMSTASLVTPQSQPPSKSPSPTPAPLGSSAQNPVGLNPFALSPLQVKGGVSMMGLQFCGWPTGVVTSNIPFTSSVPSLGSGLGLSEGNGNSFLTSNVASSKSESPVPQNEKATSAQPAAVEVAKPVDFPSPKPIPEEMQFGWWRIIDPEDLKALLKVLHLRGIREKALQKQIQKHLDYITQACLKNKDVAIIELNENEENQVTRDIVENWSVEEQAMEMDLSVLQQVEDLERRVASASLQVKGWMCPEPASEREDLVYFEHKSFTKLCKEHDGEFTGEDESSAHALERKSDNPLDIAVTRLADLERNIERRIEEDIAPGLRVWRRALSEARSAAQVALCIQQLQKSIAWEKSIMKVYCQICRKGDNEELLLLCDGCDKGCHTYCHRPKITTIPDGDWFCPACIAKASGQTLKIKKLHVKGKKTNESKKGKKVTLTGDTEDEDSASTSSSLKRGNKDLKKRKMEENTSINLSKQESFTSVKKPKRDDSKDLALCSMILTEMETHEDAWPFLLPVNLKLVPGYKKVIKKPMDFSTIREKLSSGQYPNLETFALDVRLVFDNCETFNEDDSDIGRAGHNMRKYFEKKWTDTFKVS

Usually Kd stands for the concentration at which binding is half-saturated. The term pKd denotes −log10 of the Kd, conventionally taken in molar units. One may read the IC50 as the concentration at which inhibition is half-maximal. Regarding `Cc1nnc2c(NC3CCN(CC(C)(C)F)CC3)cc(C(=O)N3[C@@H]4c5ccccc5C[C@H]3C(=O)N[C@@H]4C(C)C)nn12`, the Activity in assay [1] was 82%; in [3], 86%; in assay [4] it was 53%; in assay [6], “Dose-Dependent Effect”; in assay [8], 59%; in assay [9], 61%. The Activity in assay [10] was 79%; in assay [12] it was 75%; in [13], 86%; in assay [16] it was 90%; in [17], “Dose-Dependent Effect”. Further, in assay [2], the result was inactive. The equilibrium dissociation constant (Kd) in assay [5] was 200 nM; in [7], over 316 nM. The pKd in [11] is reported as 8.9. The half-inhibitory concentration (IC50) was 100 nM in assay [14] and 10000 nM in assay [18]. The Ratio IC50 in assay [15] came out at 20.
